In experiment [1] the test system is anti-M monoclonal antibody BM40. Format: binding.
For experiment [2], the system named is anti-A and anti-M rabbit hyperimmunised and absorbed monospecific sera. Format: binding.

For `CO[C@H]1OC(C)[C@@H](NC=O)C(O)C1O[C@H]1OC(C)[C@@H](NC=O)C(O[C@H]2OC(C)[C@@H](NC=O)C(O)C2O[C@H](C=O)OC(C)[C@H](C=O)NC=O)C1O` (stereo partly drawn) [oxiTSM], the “inhibition of BM40 mAb binding by competing liquid phase antigen” value in experiment [1] was “maintained its antibody interaction”.
For the compound `C[C@H]1O[C@H](O[C@@H]2[C@@H](O[C@@H]3[C@H](O)[C@@H](O[C@H]4[C@@H](O)[C@H](NC=O)[C@@H](C)O[C@@H]4O)O[C@H](C)[C@H]3NC=O)O[C@H](C)[C@@H](NC=O)[C@@H]2O)[C@@H](O)[C@@H](O)[C@@H]1NC=O` [TSM antigen, 4,6-dideoxy-4-formamido-α-D-mannopyranosyl-(1-2)-4,6-dideoxy-4-formamido-α-D-mannopyranosyl-(1-3)-4,6-dideoxy-4-formamido-α-D-mannopyranosyl-(1-2)-4,6-dideoxy-4-formamido-α-D-mannopyranose], in experiment [1], the “inhibition of BM40 mAb binding by competing liquid phase antigen” value is “inhibit the binding to a greater extent than the equivalent concentration of Y. enterocolitica O:9 OPS and to a similar degree as the B. abortus S99 OPS”. Further, the “inhibition of anti-M vs anti-A monospecific sera binding” value in experiment [2] was “preferential inhibition of the anti-M sera”.

Values taken from US10207006B2, “Oligosaccharide conjugates and methods of use” (priority 2013, dated 2019).
